{"source": "paper PMC6102549", "about": "“Synthesis and Evaluation of C15 Triene Urushiol Derivatives as Potential Anticancer Agents and HDAC2 Inhibitor” (Molecules : A Journal of Synthetic Chemistry and Natural …, 2018)", "key": {"[1]": {"test_system": "HepG2 cells", "experiment": "MTT assay, inhibition of proliferation of HepG2 cells", "format": "cell-based, human", "settings": "for IC50: in vitro, 72 h", "method": "(§1) As shown in Figure 1 and Table 1, compounds 1–16 were evaluated for their inhibitory effects on the proliferation of HepG2 and LO2 cells by MTT assay. […] It provided the experimental basis for the subsequent synthesis of attenuating and improving urushiol derivatives.\n(§2) Detection of cell proliferation by MTT\n(§3) MTT assay was used to determine the inhibitory effect of the sample on the proliferation of HepG2 cells. The tumor cells of logarithmic growth stage were inoculated with 3.5 * 103 / well in 96 well culture plate. 0.2 ml/pore system was cultured for 72 h with different concentrations of samples. Then 20μL(final concentration 0.5 mg / mL) of MTT were added to each pore for 4 h. The supernatant was carefully adsorbed, DMSO 0.15 mL was added to each pore, and oscillatory mixing was carried out. The absorbance (A) value at 490 nm wavelength was measured by enzyme labeling instrument. The inhibition rate of cell proliferation was calculated as follows: [(A value of negative control group-A value of blank group)-(A value of experimental group A value of blank group)] / (negative pair group A-A value of blank group) × 100.Statistical method. The statistical analysis was carried out by SPSS 17.0 statistical software. The measured data were described by x ±s, and the mean of the two samples was compared with t test (P < 0. 05).\n(§4) Materials and methods: Main reagents and instruments […]\n(§5) Full-range rainbow […]\n(§6) The HepG2 cells were cultured in a saturated humidity incubator with 90% […]\n(§7) Jiangsu Kaiji Biotechnology Co., Ltd. Main reagents and consumables Cell culture bottle […]\n(§8) Cell proliferation measured by MTT\n(§9) 1) the cells were digested and counted, the cell suspension was prepared by 3 x 10^4 /ml, and 100 micron L cell suspension was added to each hole in the 96 hole cell culture plate.\n(§10) 2) 96 hole cell culture plate was placed in 37, 5%, CO2 culture box for 24 hours.\n(§11) 3) use the medium to dilute the drug to the desired working fluid concentration, add 100 micron l per hole to the corresponding drug medium, and establish a negative control group and a positive control group (paclitaxel, 20ug/ml).\n(§12) 4) 96 hole cell culture plate was placed at 37 ℃ and 5% CO2 incubator for 72 hours.\n(§13) 5) 96 hole board for MTT staining, lambda =490nm, OD value determination; a. 20 μL MTT (5mg/ml) per hole was added to the culture box for 4 hours. b. discarding the supernatant, adding 150 μL DMSO for each hole, and gently mixing the […]\n(§14) c. lambda =490nm, ELISA od readout per hole, the inhibition rate was calculated.\n(§15) 6) calculate the inhibition rate of each group.The inhibition rate (%) = (negative control group OD value of experimental group / OD) negative control group OD x 100% […]\n(§16) 7 check the machine and record the red fluorescence at the excitation wavelength of 488nm.\n(§17) Detection of apoptosis by Annexin-V FITC/PI double staining\n(§18) (1) inoculate the logarithmic growth cells into the six-hole plate. The next day, after the cells are adhered to the wall, according to the group . The culture medium containing medicine was added and the negative control group was set up at the same time\n(§19) (2) after 72 hours of treatment, the cells were digested with 0.25% trypsin (excluding […]\n(§20) (3) 5 × 10 ~ 5 cells were collected by PBS washing cells twice (centrifugation 2000rpm for 5"}, "[2]": {"test_system": "LO2 cells", "experiment": "MTT assay, toxic effect on normal liver cells LO2", "format": "cell-based", "settings": "Homo sapiens, L02, 72 h, in vitro", "method": "as §1, §2, §3, §4, §5, §6, §7, §8, §9, §10, §11, §12, §13, §14, §15, §16, §17, §18, §19, §20"}}}
{"compound": "C/C=C\\C=C\\C/C=C\\CCCCCCCc1cccc2c1OB(c1ccccc1)O2", "note": "[Compound 4]", "values": [{"measurement": "inhibitory activity on HepG2 cells proliferation (in words)", "setting": "[1]", "value": "strong"}, {"measurement": "IC50", "setting": "[1]", "value": 15.3, "unit": "µM"}, {"measurement": "IC50", "setting": "[2]", "value": 181, "unit": "µM"}]}
{"compound": "C/C=C\\C=C\\C/C=C\\CCCCCCCc1cccc2c1OB(c1ccnc(F)c1)O2", "note": "[Compound 6]", "values": [{"measurement": "IC50", "setting": "[1]; Homo sapiens, HepG2, 72 h", "value": "> 200", "unit": "µM"}, {"measurement": "IC50", "setting": "[2]", "value": "> 200", "unit": "µM"}]}
{"compound": "C#CCOc1c(O)cccc1CCCCCCC/C=C\\C/C=C/C=C\\C", "note": "[Compound 3]", "values": [{"measurement": "IC50", "setting": "[1]; Homo sapiens, HepG2, 72 h", "value": "> 200", "unit": "µM"}, {"measurement": "IC50", "setting": "[2]", "value": "> 200", "unit": "µM"}]}
{"compound": "C/C=C\\C=C\\C/C=C\\CCCCCCCc1cccc2c1OB(c1ccncc1)O2", "note": "[Compound 5]", "values": [{"measurement": "IC50", "setting": "[1]; Homo sapiens, HepG2, 72 h", "value": 180, "unit": "µM"}, {"measurement": "IC50", "setting": "[2]", "value": "> 200", "unit": "µM"}]}
{"compound": "C/C=C\\C=C\\C/C=C\\CCCCCCCc1cccc2c1OB(C(=O)C(F)(F)C(F)(F)F)O2", "note": "[Compound 2]", "values": [{"measurement": "IC50", "setting": "[1]; Homo sapiens, HepG2, 72 h", "value": 198, "unit": "µM"}, {"measurement": "IC50", "setting": "[2]", "value": "> 200", "unit": "µM"}]}
{"compound": "C/C=C\\C=C\\C/C=C\\CCCCCCCc1cccc2c1OC(C)(C(C)Br)O2", "note": "(stereo not shown) [Compound 7]", "values": [{"measurement": "IC50", "setting": "[1]; Homo sapiens, HepG2, 72 h", "value": 89.7, "unit": "µM"}, {"measurement": "IC50", "setting": "[2]", "value": "> 200", "unit": "µM"}]}
